Where two headings read alike, the source gives them in different places.
Tests used:
[1] = biological target: T1, CYP21A2 (Homo sapiens, UniProt P08686); assay: CYP21A2 activity assay in transiently transfected HEK-293T cells; format: cell-based; details: for inhibition at 10 µM: read-out: % Inhibition CYP21A2
T1 construct: expressed in transfected cells; host or cells: HEK293 / HEK-293T
T1 sequence (P08686 1-495): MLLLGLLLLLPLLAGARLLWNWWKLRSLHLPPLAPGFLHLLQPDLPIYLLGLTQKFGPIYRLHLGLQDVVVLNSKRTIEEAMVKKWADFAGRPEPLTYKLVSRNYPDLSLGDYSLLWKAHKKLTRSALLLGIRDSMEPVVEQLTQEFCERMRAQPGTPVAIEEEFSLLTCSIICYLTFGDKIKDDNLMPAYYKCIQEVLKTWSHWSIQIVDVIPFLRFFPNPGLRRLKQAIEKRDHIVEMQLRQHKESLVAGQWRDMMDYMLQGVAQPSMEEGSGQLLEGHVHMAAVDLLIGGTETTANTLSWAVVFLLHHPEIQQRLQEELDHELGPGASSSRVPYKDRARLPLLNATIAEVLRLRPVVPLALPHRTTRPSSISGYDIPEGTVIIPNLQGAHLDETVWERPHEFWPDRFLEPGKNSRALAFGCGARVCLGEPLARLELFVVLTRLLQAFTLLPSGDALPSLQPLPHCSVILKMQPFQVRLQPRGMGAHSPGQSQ
Procedure: Transient transfections were performed using the CYP21A2 WT vector as described previously. HEK293 cells were seeded in six-well plates (3 × 10^5 cells/well). After 24 h, the growth medium was replaced, and cells were transfected using Lipofectamine 2000 (Thermo Fisher Scientific, Bedford, MA, USA) with 12.5 µg of plasmid (plasmid concentration: 1068 µg/mL). Twenty-four hours after transfection, transfected cells were replated in 24-well plates (1.5 × 10^5 cells/well) to ensure homogeneity of the cell population across the wells. Six hours after transfection, 2 mL of fresh medium was replaced, and the cells were cultured for 48 h. Cell growth was examined. […] DMSO was added to the negative control, and 10 µM abiraterone was added to the positive control, and the cells were incubated for 4 h. Functional assays were initiated by adding 1 µM unlabeled progesterone (using 10,000 cpm of [^14C]-progesterone as a tracer). After incubation at 37 °C for 1 h, the culture medium and cells were harvested. Steroids were extracted from the culture medium with ethyl acetate and isooctane (1:1 volume ratio), dried, and dissolved in dichloromethane. Steroids were separated by thin-layer chromatography (TLC), placed on a phosphor screen, and visualized using a Typhoon PhosphorImager FLA-7000 (GE Healthcare Bio-Sciences AB, Uppsala, Sweden). Image intensity was measured and quantified using ImageQuant TL v8 (Cytiva, Marlborough, MA, USA). The CYP21A2 enzyme activity was expressed as relative steroid conversion. Steroids were quantified as a percentage of radioactivity incorporated into […] to the total radioactivity measured in the whole sample and compared between the WT and variants. Cells were collected with trypsin and washed with 1× PBS to quantify the amount of protein. Results were analyzed from three technical replicates. To ensure a similar amount of CYP21A2 in each reaction, a Western blot analysis was performed to normalize the enzyme activity with the relative CYP21A2 expression.

[2] = test system: CYP21A2; assay: Western blot of CYP21A2 protein expression in treated HEK-293T cells; format: cell-based, human; details: normalized to β-actin, 4 h treatment, DMSO control 1.07
Procedure: CYP21A2 expression was determined from total protein extracts. Cells were incubated with the previously described lysis buffer for 1 h and centrifuged at 10,000× g for 10 min at 4 °C [54]. The supernatant was collected, and total protein was determined using the Pierce Coomassie Plus (Bradford) assay kit (Thermo Fisher Scientific, Hanover Park, IL, USA). 50 μg of total protein was loaded onto an SDS-PAGE gel (GenScript, Piscataway, NJ, USA) and then transferred to a PVDF membrane as previously described. Two primary antibodies were used: a mouse DKY-Tag monoclonal antibody (GenScript, Catalog No. A00187) at a dilution of 1:1000 and a mouse anti-β-actin monoclonal antibody (Sigma Aldrich, St. Louis, MO, USA, Catalog No. SAB3500350) at a dilution of 1:1500. The secondary antibody, IRDye 800CW-conjugated donkey anti-mouse antibody (LI-COR, Lincoln, NE, USA, Catalog No. 926-32212), was used at a dilution of 1:15,000. Fluorescence signals were detected using an Odyssey SA infrared imaging system (LI-COR Bioscience Inc., Lincoln, NE, USA).

[3] = test system: NCI-H295R, HEK-293T and RWPE-1 cells; assay: alamarBlue cytotoxicity assay, across all three cell lines; format: cell-based; details: Homo sapiens, read-out: half-maximal inhibitory concentrations (IC50), range across all three cell lines
Procedure: Human adrenocortical NCI-H295R cells (ATCC: CRL-2128) were purchased from ATCC and cultured in DMEM/Ham’s F-12 medium with L-glutamine and 15 mM HEPES (Thermo Fisher Scientific, Waltham, MA, USA), supplemented with 5% NU-Serum (Becton Dickinson, Franklin Lakes, NJ, USA), 0.1% insulin, transferrin, selenium (100 U/mL; Thermo Fisher Scientific, Waltham, MA, USA), and 1% penicillin (100 U/mL; Thermo Fisher Scientific, Waltham, MA, USA), and streptomycin (100 μg/mL; GIBCO, New York, NY, USA). RWPE-1 cells (ATCC: CRL-36O7) were cultured in keratinocyte serum-free media (K-SFM) supplemented with 0.05 mg/mL bovine pituitary extract and 5 ng/mL epidermal growth factor, and 1% penicillin (100 U/mL; Thermo Fisher Scientific, Waltham, MA, USA), and streptomycin (100 μg/mL; GIBCO). […] Additionally, key functional and morphological characteristics were assessed to verify their alignment with previously reported profiles.
The alamarBlue® assay (Thermo Fisher Scientific, Waltham, MA USA) was conducted as previously described. […] Cell viability was measured using the alamarBlue® assay. […] The plates were incubated in the dark at 37 °C with 5% CO2 for 4 h, and fluorescence was measured at an excitation wavelength of 540 nm and an emission wavelength of 590 nm. Cell viability was calculated relative to the control sample treated with DMSO. […]

[4] = 10 µM (SM extract 10 µg/mL), transfected HEK-293T cells, calculated as 100% − % residual activity

SMILES	Residual CYP21A2 activity ([1]; % of DMSO control, 10 µM, transfected HEK-293T cells) [%]	inhibition at 10 µM ([1]; HEK-293T) [%]	CYP21A2 protein levels, normalized densitometry values [2]	IC50 [3] [nM]	% Inhibition CYP21A2 [1, 4]	inhibition at 10 µM [1, 4] [%]
Cc1cccc2c3c(ccc12)C1=C(C(=O)C3=O)[C@@H](C)CO1 [DT, dihydrotanshinone I]	85	14.9	1.15	950 to 1400	–	–
Cc1coc2c1C(=O)C(=O)c1c-2ccc2c(C)cccc12 [TAI, tanshinone I]	–	–	–	–	no meaningful inhibition	< 1
Cc1coc2c1C(=O)C(=O)c1c-2ccc2c1CCCC2(C)C [TAII, tanshinone IIA]	–	–	1.30	–	no meaningful inhibition	< 1

From publication PMC12838644, “Dihydrotanshinone as a Natural Product-Based CYP17A1 Lyase Inhibitor for Hyperandrogenic Disorders” (Biomolecules, 2026)
